Assay results: PubChem BioAssay AID256 (DTP/NCI, 2004)
Several values for one entry are separate records, joined by “and”; a condition that tells them apart may be missing. Equal entries are not always repeated. Inconclusive results and toxic doses are left out.

Test system: CD2F1 mice, L1210 leukemia ip, survival T/C
Assay: NCI In Vivo Anticancer Drug Screen. Data for tumor model L1210 Leukemia (intraperitoneal) in CD2F1 (CDF1) mice
Conditions: higher = longer survival
Summary of the method: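 Vehicle-treated tumor-bearing mice served as controls (C) for compound-treated mice (T). Reported figure is T divided by C.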

[1] = endpoint: mean survival time, dose: 6.25 mg/kg/injection, schedule: Q04DX003 (ip), vehicle: distilled water + Tween-80
[2] = endpoint: mean survival time, dose: 25.0 mg/kg/injection, schedule: Q04DX003 (ip), vehicle: distilled water + Tween-80
[3] = endpoint: mean survival time, dose: 50.0 mg/kg/injection, schedule: Q04DX003 (ip), vehicle: distilled water + Tween-80
[4] = endpoint: mean survival time, dose: 100.0 mg/kg/injection, schedule: Q01DX009 (ip), vehicle: saline with Tween-80
[5] = endpoint: mean survival time, dose: 100.0 mg/kg/injection, schedule: Q04DX003 (ip), vehicle: saline with Tween-80
[6] = endpoint: mean survival time, dose: 200.0 mg/kg/injection, schedule: Q01DX009 (ip), vehicle: saline with Tween-80
[7] = endpoint: mean survival time, dose: 200.0 mg/kg/injection, schedule: Q04DX003 (ip), vehicle: saline with Tween-80
[8] = endpoint: mean survival time, dose: 400.0 mg/kg/injection, schedule: Q04DX003 (ip), vehicle: saline with Tween-80
[9] = endpoint: mean survival time, dose: 10.0 mg/kg/injection, schedule: Q01DX009 (ip), vehicle: saline with Tween-80
[10] = endpoint: mean survival time, dose: 20.0 mg/kg/injection, schedule: Q01DX009 (ip), vehicle: saline with Tween-80

[Br][Pt+2][Br].[NH-]c1ccc(F)cc1.[NH-]c1ccc(F)cc1
T/C (endpoint: mean survival time, dose: 3.13 mg/kg/injection, schedule: Q04DX003 (ip), vehicle: distilled water + Tween-80): 101 % of control
T/C [1]: 104 % of control
T/C (endpoint: mean survival time, dose: 12.5 mg/kg/injection, schedule: Q04DX003 (ip), vehicle: distilled water + Tween-80): 104 % of control
T/C [2]: 108 % of control
T/C [3]: 110 % of control
T/C (endpoint: mean survival time, dose: 100.0 mg/kg/injection, schedule: Q04DX003 (ip), vehicle: distilled water + Tween-80): 113 % of control

C[C@H]1CN1C1=CC(=O)C(N2C[C@@H]2C)=CC1=O
T/C (endpoint: mean survival time, dose: 3.13 mg/kg/injection, schedule: Q01DX009 (ip), vehicle: other): 183 % of control
T/C (endpoint: mean survival time, dose: 4.69 mg/kg/injection, schedule: Q01DX009 (ip), vehicle: other): 168 % of control
T/C (endpoint: mean survival time, dose: 6.25 mg/kg/injection, schedule: Q01DX009 (ip), vehicle: other): 123 % of control
T/C (endpoint: mean survival time, dose: 12.6 mg/kg/injection, schedule: Q01DX001 (ip), vehicle: other): 116 % of control
T/C (endpoint: mean survival time, dose: 18.7 mg/kg/injection, schedule: Q04DX003 (ip), vehicle: saline with Tween-80): 98 % of control

O=C(CC(O)(C(F)(F)F)C(F)(F)F)c1cccc(Cl)c1
T/C [4]: 107 % of control
T/C [5]: 105 % of control
T/C [6]: 103 % of control
T/C [7]: 105 % of control
T/C (endpoint: mean survival time, dose: 400.0 mg/kg/injection, schedule: Q01DX009 (ip), vehicle: saline with Tween-80): 119 % of control
T/C [8]: 110 % of control

COC(=O)C(C#N)=C(C)C
T/C [9]: 110 % of control
T/C (endpoint: mean survival time, dose: 10.0 mg/kg/injection, schedule: Q04DX003 (ip), vehicle: saline): 96 % of control
T/C [10]: 101 % of control
T/C (endpoint: mean survival time, dose: 20.0 mg/kg/injection, schedule: Q04DX003 (ip), vehicle: saline): 96 % of control
T/C (endpoint: mean survival time, dose: 40.0 mg/kg/injection, schedule: Q01DX009 (ip), vehicle: saline with Tween-80): 104 % of control
T/C (endpoint: mean survival time, dose: 40.0 mg/kg/injection, schedule: Q04DX003 (ip), vehicle: saline): 96 % of control

O=C(O)C12CCC(CC1)CC2
T/C (endpoint: mean survival time, dose: 75.0 mg/kg/injection, schedule: Q01DX001 (ip), vehicle: other): 107 % of control
T/C (endpoint: mean survival time, dose: 150.0 mg/kg/injection, schedule: Q01DX001 (ip), vehicle: other): 104 % of control
T/C (endpoint: mean survival time, dose: 300.0 mg/kg/injection, schedule: Q01DX001 (ip), vehicle: other): 104 % of control

Cc1cc(C)c2[nH]c(=O)c(C)c(C)c2c1
T/C (endpoint: mean survival time, dose: 100.0 mg/kg/injection, schedule: Q01DX001 (ip), vehicle: saline): 96 % of control
T/C (endpoint: mean survival time, dose: 200.0 mg/kg/injection, schedule: Q01DX001 (ip), vehicle: saline): 96 % of control
T/C (endpoint: mean survival time, dose: 400.0 mg/kg/injection, schedule: Q01DX001 (ip), vehicle: saline): 93 % of control

Cc1cc(NC(=O)Oc2ccccc2)ccc1S(=O)(=O)F
T/C (endpoint: mean survival time, dose: 50.0 mg/kg/injection, schedule: Q01DX009 (ip), vehicle: saline): 98 % of control
T/C (endpoint: mean survival time, dose: 100.0 mg/kg/injection, schedule: Q01DX009 (ip), vehicle: saline): 94 % of control
T/C (endpoint: mean survival time, dose: 200.0 mg/kg/injection, schedule: Q01DX009 (ip), vehicle: saline): 98 % of control

O=C1c2ccccc2C(=O)N1CCO
T/C [5]: 106 % of control
T/C [7]: 108 % of control
T/C [8]: 110 % of control

Cc1cc(N(CCCl)CCCl)ccc1N=Nc1ccccc1C(=O)O
T/C (endpoint: mean survival time, dose: 2.0 mg/kg/injection, schedule: Q01DX009 (ip), vehicle: saline with Tween-80): 112 % of control
T/C (endpoint: mean survival time, dose: 4.0 mg/kg/injection, schedule: Q01DX009 (ip), vehicle: saline with Tween-80): 120 % of control
T/C (endpoint: mean survival time, dose: 4.0 mg/kg/injection, schedule: Q04DX003 (ip), vehicle: saline with Tween-80): 102 % of control
T/C (endpoint: mean survival time, dose: 5.0 mg/kg/injection, schedule: Q01DX009 (ip), vehicle: saline): 114 % of control and 106 % of control
T/C (endpoint: mean survival time, dose: 8.0 mg/kg/injection, schedule: Q01DX009 (ip), vehicle: saline with Tween-80): 120 % of control
T/C (endpoint: mean survival time, dose: 8.0 mg/kg/injection, schedule: Q04DX003 (ip), vehicle: saline with Tween-80): 109 % of control
T/C (endpoint: mean survival time, dose: 10.0 mg/kg/injection, schedule: Q01DX001 (ip), vehicle: saline with Tween-80): 106 % of control
T/C [9]: 114 % of control
T/C (endpoint: mean survival time, dose: 10.0 mg/kg/injection, schedule: Q01DX009 (ip), vehicle: saline): 115 % of control and 120 % of control
T/C (endpoint: mean survival time, dose: 10.0 mg/kg/injection, schedule: Q03DX003 (ip), vehicle: saline): 113 % of control
T/C (endpoint: mean survival time, dose: 16.0 mg/kg/injection, schedule: Q04DX003 (ip), vehicle: saline with Tween-80): 115 % of control
T/C (endpoint: mean survival time, dose: 20.0 mg/kg/injection, schedule: Q01DX001 (ip), vehicle: saline with Tween-80): 102 % of control
T/C [10]: 109 % of control
T/C (endpoint: mean survival time, dose: 20.0 mg/kg/injection, schedule: Q01DX009 (ip), vehicle: saline): 122 % of control
T/C (endpoint: mean survival time, dose: 32.0 mg/kg/injection, schedule: Q01DX009 (ip), vehicle: saline with Tween-80): 97 % of control
T/C (endpoint: mean survival time, dose: 40.0 mg/kg/injection, schedule: Q01DX001 (ip), vehicle: saline with Tween-80): 115 % of control and 120 % of control
T/C (endpoint: mean survival time, dose: 40.0 mg/kg/injection, schedule: Q01DX007 (ip), vehicle: saline): 100 % of control
T/C (endpoint: mean survival time, dose: 40.0 mg/kg/injection, schedule: Q01DX009 (ip), vehicle: saline): 89 % of control
T/C (endpoint: mean survival time, dose: 64.0 mg/kg/injection, schedule: Q04DX003 (ip), vehicle: saline with Tween-80): 103 % of control
T/C (endpoint: mean survival time, dose: 80.0 mg/kg/injection, schedule: Q01DX001 (ip), vehicle: saline with Tween-80): 117 % of control and 91 % of control
T/C (endpoint: mean survival time, dose: 160.0 mg/kg/injection, schedule: Q01DX001 (ip), vehicle: saline with Tween-80): 102 % of control
T/C (endpoint: median survival time, dose: 5.0 mg/kg/injection, schedule: Q01DX009 (ip), vehicle: saline): 114 % of control and 105 % of control
T/C (endpoint: median survival time, dose: 10.0 mg/kg/injection, schedule: Q01DX009 (ip), vehicle: saline): 117 % of control
T/C (endpoint: median survival time, dose: 20.0 mg/kg/injection, schedule: Q01DX009 (ip), vehicle: saline): 117 % of control
T/C (endpoint: median survival time, dose: 40.0 mg/kg/injection, schedule: Q01DX009 (ip), vehicle: saline): 114 % of control and 117 % of control

CCCN(N=O)C(=O)Nc1ccc(C2CC(=O)N(C)C2=O)cc1 (stereo unspecified)
T/C (endpoint: mean survival time, dose: 12.5 mg/kg/injection, schedule: Q01DX001 (ip), vehicle: distilled water + Tween-80): 112 % of control
T/C (endpoint: mean survival time, dose: 25.0 mg/kg/injection, schedule: Q01DX001 (ip), vehicle: distilled water + Tween-80): 111 % of control
T/C (endpoint: mean survival time, dose: 50.0 mg/kg/injection, schedule: Q01DX001 (ip), vehicle: distilled water + Tween-80): 109 % of control
T/C (endpoint: mean survival time, dose: 100.0 mg/kg/injection, schedule: Q01DX001 (ip), vehicle: distilled water + Tween-80): 101 % of control
T/C (endpoint: mean survival time, dose: 200.0 mg/kg/injection, schedule: Q01DX001 (ip), vehicle: distilled water + Tween-80): 107 % of control

COc1ccc(Cc2nccc3cc(OC)c(OC)cc23)cc1OC
T/C (endpoint: mean survival time, dose: 9.4 mg/kg/injection, schedule: Q04DX003 (ip), vehicle: water): 115 % of control
T/C (endpoint: mean survival time, dose: 18.7 mg/kg/injection, schedule: Q04DX003 (ip), vehicle: water): 93 % of control
T/C (endpoint: mean survival time, dose: 37.5 mg/kg/injection, schedule: Q04DX003 (ip), vehicle: water): 96 % of control
T/C (endpoint: mean survival time, dose: 50.0 mg/kg/injection, schedule: Q01DX009 (ip), vehicle: water): 96 % of control

c1ccc2[nH]c(CCCCCCCCc3nc4ccccc4[nH]3)nc2c1
T/C [4]: 102 % of control
T/C [6]: 104 % of control

O=C(O)C(=O)O.[NH-]C1CCCCC1C1CCCCC1[NH-].[Pt+2] (stereo unspecified)
T/C (endpoint: mean survival time, dose: 3.12 mg/kg/injection, schedule: Q04DX003 (ip), vehicle: distilled water + Tween-80): 112 % of control
T/C [1]: 119 % of control
T/C [2]: 160 % of control
T/C [3]: 238 % of control

O=C(O)C(=O)O.O=C(O)C(=O)O.O=C(O)C(=O)O.[Fe]
T/C (endpoint: mean survival time, dose: 25.0 mg/kg/injection, schedule: Q04DX002 (ip), vehicle: saline with Tween-80): 91 % of control
T/C (endpoint: mean survival time, dose: 50.0 mg/kg/injection, schedule: Q04DX002 (ip), vehicle: saline with Tween-80): 91 % of control
T/C (endpoint: mean survival time, dose: 100.0 mg/kg/injection, schedule: Q04DX002 (ip), vehicle: saline with Tween-80): 87 % of control

COc1cc(C)c(Cl)[n+]([O-])n1
T/C (endpoint: mean survival time, dose: 3.13 mg/kg/injection, schedule: Q04DX002 (ip), vehicle: saline with Tween-80): 104 % of control
T/C (endpoint: mean survival time, dose: 6.25 mg/kg/injection, schedule: Q04DX002 (ip), vehicle: saline with Tween-80): 104 % of control
T/C (endpoint: mean survival time, dose: 12.5 mg/kg/injection, schedule: Q04DX002 (ip), vehicle: saline with Tween-80): 97 % of control and 104 % of control
